“And” between values parts separate entries of the source, which are not always exact repeats. Equal entries are not always repeated. “Also recorded” adds a separate entry of the source. Where two headings read alike, the source gives them in different places.
What was measured:
[1] = system: Hedgehog signaling (Gli-Luc reporter); experiment: Hh Gli-Luciferase reporter assay in Shh-Light2 cells; format: cell-based, mouse; details: for Sonic hedgehog (SHH)-responsive Gli-luciferase reporter activity: Shh-conditioned media; for Purmorphamine-induced Gli-Luc reporter activity: purmorphamine 3 μM; for IC50 / EC50: Mus musculus, Shh Light2; for EC50: Table 9A, read-out: Shh Light2 Luc EC50
Procedure, shortened: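 Shh-Light2 cells with stable Gli-luciferase were stimulated by Shh-conditioned medium (or 3 μM purmorphamine or 20 nM SAG), or transfected with Gli-2, PDE4D3 or DN-PDE4D3. Overnight compound incubation preceded Steady-Glo read-out, normalized to CellTiter-Glo.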

[2] = system: DU145; experiment: Cell viability assay (CellTiter-Blue, 72 hr); format: cell-based, Human
Procedure, shortened: (§1)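 Cells were plated at low density (10,000 cells per well) and exposed to a range of compound concentrations. Viability was read as absorbance at 590 nm and expressed relative to DMSO-treated cells.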

[3] = system: SW480; experiment: Cell viability assay (CellTiter-Blue, 72 hr); format: cell-based, Human; details: SW480; human cancer cells; read-out: CELL KILLING EC50 (μM) Colon SW480
Procedure, shortened: as §1

[4] = system: HeLa; experiment: Cell viability assay (CellTiter-Blue, 72 hr); format: cell-based, Human
Procedure, shortened: as §1

[5] = system: zebrafish embryos; experiment: Zebrafish embryo phenotypic assay (ZF); format: in vivo; details: for Hh-deficient mutant phenotype in embryos: 2 μM from 4 hpf where stated
Procedure, shortened: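 Wild-type AB zebrafish embryos (~10) in E3 egg water dosed at 5 hours post-fertilization from 1 mM or 10 mM DMSO stock. Scored for gross morphological changes at 24, 48 and 72 hpf. Screening run used 5 μM final, added ~4 hpf, incubated at 28.5 °C.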

[6] = system: H82; experiment: Cell killing EC50 in H82 lung cancer cells (Table 10); format: cell-based; details: human cancer cells
Method: It is anticipated that compounds disclosed herein could serve as an anti-tumor, anti-angiogenic, anti-metastatic, agent in the treatment of cancer. To this end, a series of clinically relevant cancer lines were assayed and the cell-killing EC50s for compounds according to the subject matter disclosed herein are provided in Table 10.

[7] = molecular target: PDE4D (Homo sapiens, UniProt Q08499); experiment: PDE4 inhibition assay (PDE4D IC50); format: biochemical; details: read-out: PDE4D IC50
Procedure, shortened: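 PDE4D incubated 60 min at room temperature in duplicate with 100 nM FAM-cAMP and compound (1% DMSO final) in Tris-HCl pH7.4, 10 mM MgCl2, 0.05% Tween 20. FAM-AMP detected with binding-agent nanobeads after a further 60 min, read at 485/528 nm.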

[8] = DU-145, human cancer cells, read-out: CELL KILLING EC50 (μM) Prostate DU145
[9] = human cancer cells, read-out: CELL KILLING EC50 (μM) Cervix HeLa

Row | SMILES | EC50 [2, 8] [µM] | EC50 [3] [µM] | EC50 [4, 9] [µM] | CELL KILLING EC50 (μM) Lung H82 [6] | IC50 [1] [µM] | IC50 [7] | also measured
1 | C=C(C)Cn1c(SCC(=O)c2cccs2)nc2sc3c(c2c1=O)CCCC3 [EGM, Eggmanone] | 41.9 | 0.534 | 12.4 | UnCh |  |  | Sonic hedgehog (SHH)-responsive Gli-luciferase reporter activity [1]: inhibited Sonic hedgehog (SHH)-responsive Gli-luciferase (Gli-Luc) reporter activity in a dose-dependent manner; Purmorphamine-induced Gli-Luc reporter activity [1]: inhibited purmorphamine (Purm, 3 μM)-induced Gli-Luc reporter activity in a dose-dependent manner; Hh-deficient mutant phenotype in embryos [5]: exhibited range of phenotypes found in Hh pathway mutants
2 | C=C(C)Cn1c(SCC(=O)c2cccs2)nc2sc3c(c2c1=O)CCCC3 [Eggmanone, 3-(2-methylallyl)-2-((2-oxo-2-(thiophen-2-yl)ethyl)thio)-5,6,7,8-tetrahydrobenzo[4,5]thieno[2,3-d]pyrimidine-4(3H)-one] |  |  |  |  | 1.5 | 0.89 µM and 0.893 µM | Sonic hedgehog (SHH)-responsive Gli-luciferase reporter activity [1]: inhibited Hh-inducible Gli-responsive luciferase (Gli-Luc) activity in a dose dependent manner; Sonic hedgehog (SHH)-responsive Gli-luciferase reporter activity ([1]; listed as eggmanone): inhibited Hh-inducible Gli-responsive luciferase (Gli-Luc) activity in a dose dependent manner; Purmorphamine-induced Gli-Luc reporter activity [1]: blocked Gli-Luc reporter and ptch1 induction by purmorphamine; Hh-deficient mutant phenotype in embryos [5]: caused a number of phenotypes resembling those of Hh-deficient mutant embryos; also recorded: exhibited range of phenotypes found in Hh pathway mutants; Hh-deficient mutant phenotype in embryos ([5]; listed as eggmanone): caused a number of phenotypes resembling those of Hh-deficient mutant embryos
3 | CCCn1c(SCC(=O)c2cccs2)nc2sc3c(c2c1=O)CCCC3 [Formula 9e] |  |  |  |  |  |  | IC50 ([7]; mean ± SEM, normalized to DMSO): 0.486 ± 0.001 µM
4 | C=C(C)Cn1c(SCC(=O)c2ccccc2)nc2sc3c(c2c1=O)CCCC3 [Formula 9g] |  |  |  |  |  |  | IC50 ([7]; mean ± SEM, normalized to DMSO): 0.965 ± 0.1 µM
5 | O=C(CSc1nc2sc3c(c2c(=O)n1C1CC1)CCCC3)c1cccs1 [JEH-3-039-2] |  |  |  |  |  |  | ZF Phenotype EC100 ([5]; wild-type embryonic zebrafish, dosed 5 hpf): 0.1 µM
6 | C=CCn1c(SCC(=O)c2cccs2)nc2sc3c(c2c1=O)CCCC3 [JEH-3-039-3] | 71 | 3.63 | 36.9 | UnCh |  |  | 
7 | C=C(C)Cn1c(SCC(=O)c2ccncc2)nc2sc3c(c2c1=O)CCCC3 [JEH-3-048-1] | 100 | 1.87 | 23.6 | UnCh | 10 | 16 µM | 
8 | C=C(C)Cn1c(SCC(=O)c2ccccn2)nc2sc3c(c2c1=O)CCCC3 [JEH-3-063] | 0.684 | 8.05 | 9.18 | UnCh | 15 | 4.9 µM | EC50 [1]: 10 to 20 µM; EC50 ([2]; DU-145, 72 h, read-out: EC50 (50% reduction of viable cell count at 72 hours), DU145, Human Prostate Adenocarcinoma): 0.684 µM; EC50 ([4]; 72 h, read-out: EC50 (50% reduction of viable cell count at 72 hours), Human Cervical Adenocarcinoma): 9.2 µM
9 | C=C(C)Cn1c(SCC(=O)c2nccs2)nc2sc3c(c2c1=O)CCCC3 [JEH-3-069-1] | 47.5 | 6.92 | 100 | UnCh |  |  | EC50 [1]: 10 to 20 µM

— patent publication US10329304B2, “Compounds and methods for inhibition of hedgehog signaling and phosphodiesterase” (Vanderbilt University, priority 2014, dated 2019)
